{"source": "patent US20100249383A1", "about": "“Novel Ligand Involved In The Transmigration Of Leukocytes Across the Endothelium and Uses Therefor” (The Regents of The University of California and The Burnham …, priority 2001, published 2010)", "molecules": {"B1": {"name": "annexin I: human annexin I, from neutrophil lysates or recombinant full length from E. coli (protein, UniProt P04083 2-346, looked up)", "Annexin A1": "AMVSEFLKQAWFIENEEQEYVQTVKSSKGGPGSAVSPYPTFNPSSDVAALHKAIMVKGVDEATIIDILTKRNNAQRQQIKAAYLQETGKPLDETLKKALTGHLEEVVLALLKTPAQFDADELRAAMKGLGTDEDTLIEILASRTNKEIRDINRVYREELKRDLAKDITSDTSGDFRNALLSLAKGDRSEDFGVNEDLADSDARALYEAGERRKGTDVNVFNTILTTRSYPQLRRVFQKYTKYSKHDMNKVLDLELKGDIEKCLTAIVKCATSKPAFFAEKLHQAMKGVGTRHKALIRIMVSRSEIDMNDIKAFYQKMYGISLCQAILDETKGDYEKILVALCGGN"}}, "data": [{"system": "mAbGB3.1", "test": "Inhibition ELISA of mAbGB3.1 binding to bovine lung proteins / immobilized BSA neoglycoproteins", "design": "species or system mouse", "settings": "at 1 to 5 mM", "description": "(§1) Binding in the absence of inhibitor was defined as 100%. […] Binding at pH 7.0 was defined as 100% for each. […] Binding in the absence of inhibitor was defined as 100%.\n(§2) In these ELISAs, 96-well plates were coated with 250 ng of BSA neoglycoproteins at incubated either for 6 h at room temperature, or 4 h at 37° C. Plates were washed and blocked with 3% BSA in PBS overnight, incubated with hybridoma culture supernatants or with purified IgG diluted in PBS containing 1% BSA and 0.05% Tween 20. Incubations were for 1-2 h at room temperature, or overnight at 4° C. The plates were then washed and incubated with alkaline phosphatase conjugated goat anti-mouse IgG, followed by development with p-nitrophenyl phosphate substrate. Absorbance was measured at 405 nm in an ELISA plate reader.\n(§3) Briefly, 96-well plates were coated with 50 ng of bovine albumin (BSA) neoglycoproteins containing total bovine lung glycopeptides coupled to BSA using glutaraldehyde for 4 h at 37° C. The neoglycoproteins were prepared for immunization screening as described above.\n(§4) Plates were washed and blocked with 3% BSA in phosphate-buffered saline (PBS) overnight at 4° C. […] The plates were then washed and incubated with alkaline phosphatase conjugated goat anti-mouse IgG, followed by development with p-nitrophenyl phosphate substrate. Absorbance was measured at 405 nm in an ELISA plate reader.", "values": [{"molecule": "hyaluronic acid [hyaluronic acid (tetramer and octamer)]", "inhibition of mAbGB3.1 binding by glycosaminoglycan-like compounds": "do not inhibit binding"}, {"molecule": "N[C@H]1C(O)O[C@H](CO)[C@H](O)[C@@H]1O", "note": "(stereo partly shown) [Chondrosarnine, chondrosamine]", "inhibition of mAbGB3.1 binding by glycosaminoglycan-like compounds": "do not inhibit binding"}, {"molecule": "chondroitin sulfate", "inhibition of mAbGB3.1 binding by glycosaminoglycan-like compounds": "do not inhibit binding"}]}, {"system": "mAbGB3.1", "test": "Inhibition ELISA of mAbGB3.1 binding to bovine lung proteins / immobilized BSA neoglycoproteins", "design": "species or system mouse", "settings": "low mM concentrations, pH 7.5; FIG. 2 Panel C", "description": "as §1, §2, §3, §4", "values": [{"molecule": "CC(=O)C(=O)O", "note": "[pyruvic acid]", "inhibition of mAbGB3.1 reactivity by carboxylic acids": "did not inhibit binding"}, {"molecule": "O=C(O)CN(CCN(CC(=O)O)CC(=O)O)CC(=O)O", "note": "[EDTA, ethylenediamine tetraacetic acid]", "inhibition of mAbGB3.1 reactivity by carboxylic acids": "inhibited"}, {"molecule": "CC(=O)O", "note": "[acetate]", "inhibition of mAbGB3.1 reactivity by carboxylic acids": "inhibited"}, {"molecule": "O=C[C@H](O)[C@@H](O)[C@@H](O)[C@H](O)C(=O)O", "note": "[galacturonic acid]", "inhibition of mAbGB3.1 reactivity by carboxylic acids": "did not inhibit binding"}, {"molecule": "CC(O)C(=O)O", "note": "(stereo not shown) [lactic acid]", "inhibition of mAbGB3.1 reactivity by carboxylic acids": "did not inhibit binding"}, {"molecule": "O=C[C@H](O)[C@@H](O)[C@H](O)[C@H](O)C(=O)O", "note": "[glucuronic acid]", "inhibition of mAbGB3.1 reactivity by carboxylic acids": "did not inhibit binding"}, {"molecule": "O=C(O)CCC(=O)O", "note": "[succinate]", "inhibition of mAbGB3.1 reactivity by carboxylic acids": "inhibited"}, {"molecule": "O=C(O)CC(O)(CC(=O)O)C(=O)O", "note": "[citrate]", "inhibition of mAbGB3.1 reactivity by carboxylic acids": "inhibited"}]}, {"system": "mAbGB3.1", "test": "Inhibition ELISA of mAbGB3.1 binding to bovine lung proteins / immobilized BSA neoglycoproteins", "design": "species or system mouse", "settings": "sulfated or phosphorylated sugars tested at or below 5 mM; data not shown", "description": "as §1, §2, §3, §4", "values": [{"molecule": "O=C[C@H](O)[C@@H](O)[C@@H](O)[C@H](O)COS(=O)(=O)O", "note": "[Gal-6-sulfate, galactose-6-sulfate]", "effect on mAbGB3.1 reactivity in the ELISA assay": "unaffected"}, {"molecule": "O=C[C@H](O)[C@@H](O)[C@H](O)[C@H](O)COS(=O)(=O)O", "note": "[Glc-6-sulfate, glucose-6-sulfate]", "effect on mAbGB3.1 reactivity in the ELISA assay": "unaffected"}, {"molecule": "O=C[C@H](O)[C@@H](O)[C@@H](O)[C@H](O)COP(=O)(O)O", "note": "[Gal-6-phosphate, galactose-6-phosphate]", "effect on mAbGB3.1 reactivity in the ELISA assay": "unaffected"}, {"molecule": "O=C[C@H](O)[C@@H](O)[C@H](O)[C@H](O)COP(=O)(O)O", "note": "[Glc-6-phosphate, glucose-6-phosphate]", "effect on mAbGB3.1 reactivity in the ELISA assay": "unaffected"}, {"molecule": "CC(=O)N[C@H]1C(OP(=O)(O)O)O[C@H](CO)[C@@H](O)[C@@H]1O", "note": "(stereo partly shown) [GlcNAc-1-phosphate, glucose-N-acetyl-1-phosphate]", "effect on mAbGB3.1 reactivity in the ELISA assay": "unaffected"}, {"molecule": "O=P(O)(O)O[C@H]1O[C@H](CO)[C@@H](O)[C@H](O)[C@H]1O", "note": "[Glc-1-phosphate, glucose-1-phosphate]", "effect on mAbGB3.1 reactivity in the ELISA assay": "unaffected"}, {"molecule": "CC(=O)N[C@H]1C(O)O[C@H](COP(=O)(O)O)[C@@H](O)[C@@H]1O", "note": "(stereo partly shown) [GlcNAc-6-phosphate, glucose-N-acetyl-6-phosphate]", "effect on mAbGB3.1 reactivity in the ELISA assay": "unaffected"}, {"molecule": "O=C[C@@H](O)[C@@H](O)[C@H](O)[C@H](O)COP(=O)(O)O", "note": "[Man-6-phosphate, mannose-6-phosphate]", "effect on mAbGB3.1 reactivity in the ELISA assay": "unaffected"}]}, {"system": "BSA coupled 0.3 M asialo-COO^− lung glycopeptides", "test": "Depletion of annexin I and S100 proteins from human neutrophil lysates by immobilized bovine lung glycopeptides", "format": "binding", "settings": "immunoblot of supernatants; FIG. 15, FIG. 16", "description": "(§5) In these assays, extracts from activated human neutrophils were first incubated with immobilized asialo-COO^− glycopeptides, and the residual proteins in the supernatants were analyzed by immunoblots. Since the S100A8/A9 complexes are typically destroyed during SDS-PAGE (i.e., break down into monomers), the intensity of staining in immunoblots was beyond the linearity of reaction for any quantitative evaluation.\n(§6) In these experiments, 96-well plates were coated with 250 ng of BSA coupled 0.3 M asialo-COO^− lung glycopeptides for 4 h at 37° C. and blocked with 3% BSA in PBS overnight. Human neutrophil extracts were sequentially incubated in each of four wells for 30 min/well at 37° C. in leukocyte activation buffer (described above), in presence or absence of 200 μM 0.3 M asialo-COO^− glycopeptides or asialo-CONHMe-glycopeptides. After incubation, the supernatants from the incubation wells were collected and protein depletion was analyzed by immunoblotting using the respective antibodies. For detection of S100A8/A9 complexes, the proteins in the supernatants were stabilized by chemical cross-linking using bis-sulfosuccinimidyl suberate (BS^3) as known in the art (See, Staros, Biochem., 21:3590 [1982]). Briefly, the cross linker was added from a fresh 2 mM stock solution to neutrophil lysates obtained as described above, to a final concentration of 200 μM, and the mixture was incubated at room temperature for 30 min. Reactions were quenched by the addition of 1 M Tris to a final concentration of 10 mM and samples were stored at −80° C., until they were assayed. Cross-linked samples were incubated with 2-mercaptoethanol prior to separation on SDS-PAGE. Since crude lysates were used in the cross-linking, it is conceivable that non-specific cross-linking could occur. Therefore, only the bands that were still strongly stained with increasing dilution of both anti-S100A8 and anti-S100A9 were identified.", "values": [{"molecule": "S100A8 homodimer: cross-linked S100A8 homodimer from human neutrophil extracts", "depletion from neutrophil extracts after binding to the glycopeptides": "depleted"}, {"molecule": "S100A8/A9 heterodimer: S100A8•S100A9 heterodimer from human neutrophil extracts", "depletion from neutrophil extracts after binding to the glycopeptides": "depleted"}, {"molecule": "S100A8/A9 heterotrimer: (S100A8)2•S100A9 heterotrimer from human neutrophil extracts", "depletion from neutrophil extracts after binding to the glycopeptides": "depleted"}]}, {"system": "BSA coupled 0.3 M asialo-COO^− lung glycopeptides", "test": "Depletion of annexin I and S100 proteins from human neutrophil lysates by immobilized bovine lung glycopeptides", "format": "binding", "settings": "intact (37 kDa) protein; FIG. 16 lane 2", "description": "as §5, §6", "units": {"depletion from the neutrophil preparations after binding to carboxylate-enriched glycopeptides": "%"}, "values": [{"molecule": "B1", "depletion from the neutrophil preparations after binding to carboxylate-enriched glycopeptides": "> 90"}]}, {"system": "0.3 M asialo-COO^− glycopeptide-BSA neoglycoproteins", "test": "ELISA binding of purified proteins to immobilized carboxylated bovine lung glycans", "settings": "FIG. 19 or data not shown", "description": "In additional ELISA experiments, 96-well plates were coated with 0.3 M asialo-COO^− glycopeptide-BSA neoglycoproteins (250 ng/well) for 4 h at 37° C. (control wells had BSA alone) and blocked with 3% BSA in PBS overnight. The wells were then incubated with purified human annexin I or S100A8/A9 complexes (as appropriate), in 10 mM HUES buffer pH 7.5 containing 150 mM NaCl, 5 mM KCl, 1.2 mM MgCl2 and 1.3 mM CaCl2, in the absence or presence of varying concentrations of 0.3 M asialo-COO^− glycopeptides or 0.3 M asialo-CONHMe-glycopeptides for 2 h at room temperature. This was followed by incubation with anti-bovine annexin I antibody or anti-human S100A8 or anti-S100A9 for 2 h at room temperature. Wells were then washed and incubated with alkaline phosphatase conjugated goat anti-mouse IgG, followed by development with p-nitrophenyl phosphate substrate.\nIn this Example, experiments conducted to assess amphoterin binding to COO^− glycopeptide coated plates was assayed as described earlier for annexin I and S100 proteins. In addition, bound protein was detected using anti-amphoterin. mAbGB3.1 binding to sRAGE was assessed by first coating sRAGE on microtiter wells for 4 h at 37° C. After blocking with 3% BSA in PBS overnight, wells were incubated with mAbGB3.1 in the presence and absence of COO^−or CONHMe-glycopeptide and developed as described above.", "values": [{"molecule": "S100B: other S100 protein", "binding to immobilized carboxylated vs neutralized glycans": "remained constant"}, {"molecule": "S100A1: other S100 protein", "binding to immobilized carboxylated vs neutralized glycans": "remained constant"}, {"molecule": "S100A8: recombinant S100A8 alone", "binding to immobilized carboxylated vs neutralized glycans": "does not show specific binding"}, {"molecule": "B1", "binding to immobilized carboxylated vs neutralized glycans": "bound"}]}, {"system": "[2-^3H]mannose-labeled CPAE glycoproteins", "test": "Precipitation of mannose-labeled glycoproteins and cross-binding", "design": "species or system bovine", "settings": "primary binding", "description": "Calf pulmonary artery endothelial cells (CPAE) cells were labeled with [2-^3H] mannose at 20 μCi/ml for 24 h in alpha MEM containing 10% fetal bovine serum. Cells were harvested by trypsinization, washed thrice in PBS, and lysed in PBS containing protease inhibitors and 0.5% NP40. Protein-rich lysates were prepared by ultrafiltration on YM10 membranes. Purified S100A8/A9 or annexin I proteins were immobilized on Affigel-10, and mixed with the labeled glycoproteins from CPAE cells in 10 mM HEPES buffer pH 7.5 containing 150 mM NaCl, 5 mM KCl, 1.2 mM MgCl2 and 1.3 mM CaCl2 after preclearing the lysates with BSA-Affigel 10. For immunoprecipitations using mAbGB3.1, lysates were precleared with normal mouse IgG-protein G beads and then incubated with Protein G coupled to mAbGB3.1 IgG in PBS. After overnight incubation at 4° C., the individual pellets were washed free of all unbound label until no more counts appeared in the washes, and the radioactivity associated with the pellets was measured.\nFor cross-binding, label associated with each pellet was first eluted using high salt (5 M MgCl2, which eluted >70% bound label). The eluates were repeatedly desalted on YM10 membranes and resuspended in the respective buffers. Label eluted from mAbGB3.1 gels was mixed with immobilized S100A8/A9 or annexin I and vice versa. Again, after overnight incubation at 4° C., the individual pellets were washed free of all unbound label and counted. […] In comparison, immobilized annexin I precipitated only about 2-3% of mannose labeled glycoproteins from endothelial cells (data not shown).", "values": [{"molecule": "B1", "% Bound Radioactivity (mean ± SD)": "2-3%"}]}]}
